Laboratory results as given in ChEMBL document CHEMBL1125855, “C-2 desmethyl seco-mevinic acids. Monocyclic HMG-CoA reductase inbibitors” (Bioorg Med Chem Lett, 1991).

What was measured:
[1] = biological target: T1, 3-hydroxy-3-methylglutaryl-coenzyme A reductase (Rattus norvegicus, UniProt P51639); test: (§1) In vitro ability to inhibit HMG-CoA reductase; conditions: read-out: I50
T1 sequence (P51639 whole entry): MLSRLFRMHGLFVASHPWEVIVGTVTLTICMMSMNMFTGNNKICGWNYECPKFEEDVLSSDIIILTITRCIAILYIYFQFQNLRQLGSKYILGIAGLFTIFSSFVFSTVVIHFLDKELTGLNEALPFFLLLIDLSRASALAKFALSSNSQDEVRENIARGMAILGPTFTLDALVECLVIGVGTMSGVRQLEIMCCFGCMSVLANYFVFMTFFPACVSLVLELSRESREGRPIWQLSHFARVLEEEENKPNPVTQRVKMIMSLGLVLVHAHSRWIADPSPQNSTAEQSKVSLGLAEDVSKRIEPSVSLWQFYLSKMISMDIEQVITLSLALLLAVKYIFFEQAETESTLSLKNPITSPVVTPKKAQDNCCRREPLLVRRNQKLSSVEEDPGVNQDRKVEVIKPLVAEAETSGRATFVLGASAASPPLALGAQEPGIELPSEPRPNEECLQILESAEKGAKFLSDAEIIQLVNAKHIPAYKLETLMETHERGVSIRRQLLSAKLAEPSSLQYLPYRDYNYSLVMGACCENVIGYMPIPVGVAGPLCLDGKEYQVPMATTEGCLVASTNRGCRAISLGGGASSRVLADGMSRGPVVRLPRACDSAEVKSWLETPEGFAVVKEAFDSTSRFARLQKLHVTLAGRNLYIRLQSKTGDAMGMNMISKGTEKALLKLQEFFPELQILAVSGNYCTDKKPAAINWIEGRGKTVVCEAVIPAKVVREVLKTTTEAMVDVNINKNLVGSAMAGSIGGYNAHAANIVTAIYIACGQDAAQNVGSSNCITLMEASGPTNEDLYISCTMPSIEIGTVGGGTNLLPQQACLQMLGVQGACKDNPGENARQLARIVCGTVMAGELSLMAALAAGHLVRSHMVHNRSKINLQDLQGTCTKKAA

[2] = biological target: T2, 3-hydroxy-3-methylglutaryl-coenzyme A reductase (Homo sapiens, UniProt P04035); test: as §1; conditions: read-out: I50
T2 sequence (P04035 whole entry): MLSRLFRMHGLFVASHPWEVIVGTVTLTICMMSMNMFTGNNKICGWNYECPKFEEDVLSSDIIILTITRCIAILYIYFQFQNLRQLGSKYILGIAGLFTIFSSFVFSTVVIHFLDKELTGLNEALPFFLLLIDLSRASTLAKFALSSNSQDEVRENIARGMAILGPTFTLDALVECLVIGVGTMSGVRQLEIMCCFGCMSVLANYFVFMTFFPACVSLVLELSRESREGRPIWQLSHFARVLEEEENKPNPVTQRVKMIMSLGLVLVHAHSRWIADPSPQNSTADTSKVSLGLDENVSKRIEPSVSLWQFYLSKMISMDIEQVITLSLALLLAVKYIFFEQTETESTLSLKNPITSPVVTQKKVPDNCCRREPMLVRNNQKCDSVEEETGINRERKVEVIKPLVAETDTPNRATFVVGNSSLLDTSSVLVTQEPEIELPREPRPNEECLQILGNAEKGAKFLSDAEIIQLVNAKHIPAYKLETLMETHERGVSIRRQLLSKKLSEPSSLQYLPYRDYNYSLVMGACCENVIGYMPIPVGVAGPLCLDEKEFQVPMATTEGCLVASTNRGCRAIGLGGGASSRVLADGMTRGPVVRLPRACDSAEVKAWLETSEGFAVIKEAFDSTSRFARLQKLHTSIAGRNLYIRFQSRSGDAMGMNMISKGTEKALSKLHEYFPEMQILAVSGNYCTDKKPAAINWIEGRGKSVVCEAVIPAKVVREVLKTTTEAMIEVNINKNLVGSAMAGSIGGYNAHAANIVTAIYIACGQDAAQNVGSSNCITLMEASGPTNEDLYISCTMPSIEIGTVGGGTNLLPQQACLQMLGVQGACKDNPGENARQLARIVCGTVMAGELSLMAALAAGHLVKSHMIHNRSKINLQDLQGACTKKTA

| Compound | IC50 [1] | IC50 [2] |
| --- | --- | --- |
| CC[C@H](C)C(=O)OC[C@H]1CCCC[C@@H]1CCC(=O)C[C@@H](O)CC(=O)O | 320 µM |  |
| CCC[C@@H]1CCC[C@H](/C=C/[C@@H](O)C[C@@H](O)CC(=O)O)[C@H]1COC(=O)C(C)(C)CC |  | 4.9 µM |
| C[C@H]1C=CC[C@H](COC(=O)C(C)(C)C)[C@H]1CCC(O)CC(O)CC(=O)O (stereo partly specified) |  | 1500 µM |

Continued, values first:

| IC50 [1] | IC50 [2] | Compound |
| --- | --- | --- |
|  | 1.7 µM | CCC[C@@H]1CCC[C@H](CC[C@@H](O)C[C@@H](O)CC(=O)O)[C@H]1COC(=O)C(C)(C)CC |
|  | 0.008 µM | CCC[C@@H]1CC[C@H](C)[C@H](CC[C@@H](O)C[C@@H](O)CC(=O)O)[C@H]1COC(=O)C(C)(C)CC |
|  | 4.6 µM | CCC(C)(C)C(=O)OC[C@H]1CCCC[C@@H]1CCC(O)C[C@@H](O)CC(=O)O (stereo partly specified) |
